The record followed here is patent US20130158072A1, “KAPPA OPIOID RECEPTOR BINDING LIGANDS” (Research Triangle Institute, priority 2010, published 2013).

The target in assay [1] is cloned human κ-opioid receptor (Homo sapiens, UniProt P41145). Briefly: Inhibition of U69,593-stimulated [35S]GTPγS binding. The settings on record: for change in potency on N-methylation at the tetrahydroisoquinoline nitrogen: 8c: at all receptor subtypes, others: at κ receptors; for κ, U69,593 Ke: antagonism of U69,593-stimulated [35S]GTPγS binding, CHO cells, means ± SE, at least three experiments; for δ/κ / μ/κ: ratio of Ke values; for δ/κ: κ selectivity relative to δ; for μ/κ: κ selectivity relative to μ. (GTPγS is a poorly hydrolysed GTP analogue; its binding reports G protein activation.)
cloned human κ-opioid receptor, sequence (P41145 whole entry): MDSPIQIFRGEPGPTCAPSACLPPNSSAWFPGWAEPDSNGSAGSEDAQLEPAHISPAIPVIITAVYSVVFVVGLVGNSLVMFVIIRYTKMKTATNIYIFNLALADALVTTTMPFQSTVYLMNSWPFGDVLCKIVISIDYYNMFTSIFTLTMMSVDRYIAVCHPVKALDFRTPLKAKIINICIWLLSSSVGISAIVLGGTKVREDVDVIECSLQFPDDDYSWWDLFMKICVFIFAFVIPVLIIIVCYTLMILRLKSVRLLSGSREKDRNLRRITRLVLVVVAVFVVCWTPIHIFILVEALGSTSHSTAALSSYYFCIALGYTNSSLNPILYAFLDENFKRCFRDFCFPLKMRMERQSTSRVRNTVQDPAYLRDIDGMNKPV
Method: (§1) Test compound assay concentrations ranged from 1-5000 nM, depending on their activity. The Ke values were calculated using the formula: Ke=[L]/DR−1, where [L] is the concentration of test compound and DR is the ratio of agonist EC50 value in the presence or absence of test compound, respectively.

Assay [2] concerns the target T1, cloned human μ-opioid receptor (Homo sapiens, UniProt P35372).
T1 construct: expressed in transfected cells; host or cells: CHO cells
Briefly: Inhibition of DAMGO-stimulated [35S]GTPγS binding. The settings on record: for μ, DAMGO Ke: antagonism of DAMGO-stimulated [35S]GTPγS binding, CHO cells, means ± SE, at least three experiments; for potency at μ receptors compared to 3: compared with 3. The assay is classed as biochemical.
Method: as §1

Assay [3] deals with T2, cloned human δ-opioid receptor (Homo sapiens, UniProt P41143).
T2 construct: expressed in transfected cells; host or cells: CHO cells
T2 sequence (P41143 whole entry): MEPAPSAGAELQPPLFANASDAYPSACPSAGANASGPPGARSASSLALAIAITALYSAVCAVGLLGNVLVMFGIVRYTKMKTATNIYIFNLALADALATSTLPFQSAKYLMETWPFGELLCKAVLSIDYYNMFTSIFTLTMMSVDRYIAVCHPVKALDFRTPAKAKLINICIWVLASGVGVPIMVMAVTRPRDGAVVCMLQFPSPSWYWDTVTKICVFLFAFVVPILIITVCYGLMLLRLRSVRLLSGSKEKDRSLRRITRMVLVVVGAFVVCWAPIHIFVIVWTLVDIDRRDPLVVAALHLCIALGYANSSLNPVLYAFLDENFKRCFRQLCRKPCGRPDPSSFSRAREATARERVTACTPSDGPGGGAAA
Kind of assay: Inhibition of DPDPE-stimulated [35S]GTPγS binding. It is filed as biochemical. The settings on record: for δ, DPDPE Ke: antagonism of DPDPE-stimulated [35S]GTPγS binding, CHO cells, means ± SE, at least three experiments.
Method: as §1

The structures appear in SMILES notation. Values joined by “and” are separate entries in the source; they are usually repeats but may differ in a detail not shown here. Equal values may be shown once. Some results are limits rather than exact numbers.

T1 sequence (P35372 whole entry): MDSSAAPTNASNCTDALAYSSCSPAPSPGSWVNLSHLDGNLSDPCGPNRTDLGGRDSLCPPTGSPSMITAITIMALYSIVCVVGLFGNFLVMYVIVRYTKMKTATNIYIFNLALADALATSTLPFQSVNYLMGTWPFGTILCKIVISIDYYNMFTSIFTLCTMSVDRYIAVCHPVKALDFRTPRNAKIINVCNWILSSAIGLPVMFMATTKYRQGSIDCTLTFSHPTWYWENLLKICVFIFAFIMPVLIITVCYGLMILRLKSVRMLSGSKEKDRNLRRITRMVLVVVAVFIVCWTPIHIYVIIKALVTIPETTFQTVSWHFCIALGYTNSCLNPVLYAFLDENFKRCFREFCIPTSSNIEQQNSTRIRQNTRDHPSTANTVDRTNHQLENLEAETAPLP

As for `CC(C)[C@@H](CN1CC[C@@](C)(c2cccc(O)c2)[C@@H](C)C1)NC(=O)[C@H]1Cc2ccc(O)cc2CN1C` [Compound 8c], in assay [1], the “change in potency on N-methylation at the tetrahydroisoquinoline nitrogen” value (from here on “change in potency on N-methylation”) was “reduction in potency at all receptor subtypes”; the “κ, U69,593 Ke” value is 0.16 nM and 0.16 ± 0.06 nM; the δ/κ is 3070; the μ/κ was determined as 1313. Further, the “μ, DAMGO Ke” value in assay [2] is on record as 210 ± 60 nM. The “δ, DPDPE Ke” value in assay [3] was found to be 491 ± 120 nM.
For the molecule `COc1cccc([C@]2(C)CCN(C[C@@H](NC(=O)[C@H]3Cc4ccc(O)cc4CN3)C(C)C)C[C@@H]2C)c1` [Compound 8d, (3R)-7-Hydroxy-N-[(1S)-1-{[(3R,4R)-4-(3-methoxyphenyl)-3,4-dimethylpiperidin-1-yl]methyl}-2-methylpropyl]-1,2,3,4-tetrahydroisoquinoline-3-carboxamide], the values for the Kb in assay [1], in assay [2] and in assay [3] were 0.037 ± 0.003 nM, 24 ± 8 nM and 21.2 ± 5 nM, respectively. For the same molecule, in assay [1] (compared with 3), the “decrease in potency at the κ receptor relative to 3” value is given as “two-fold decrease in potency”. The δ/κ in assay [1] was 573. Besides, the μ/κ in assay [1] is 649.
For the molecule `CC(C)[C@@H](CN1CC[C@@](C)(c2cccc(O)c2)[C@@H](C)C1)NC(=O)[C@@]1(C)Cc2ccc(O)cc2CN1` [Compound 8e, (3R)-7-Hydroxy-N-[(1S)-1-[(3R,4R)-4-(3-hydroxyphenyl)-3,4-dimethylpiperidin-1-yl]methyl}-(2-methylpropyl]-3-methyl-1,2,3,4-tetrahydroisoquinoline-3-carboxamide], the “κ, U69,593 Ke” value in assay [1] was 0.03 nM and 0.03 ± 0.008 nM. Further, in assay [2], the “μ, DAMGO Ke” value is recorded as 3.6 ± 1 nM. In addition, in assay [3], the “δ, DPDPE Ke” value is on record as 854 ± 210 nM.
`CC[C@H](C)[C@@H](CN1CC[C@@](C)(c2cccc(OC)c2)[C@@H](C)C1)NC(=O)[C@H]1Cc2ccc(O)cc2CN1` [Compound 8f, (3R)-7-Hydroxy-N-[(1S,2S)-1-{[(3R,4R)-4-(3-methoxyphenyl)-3,4-dimethylpiperidin-1-yl]methyl}-2-methylbutanyl]-1,2,3,4-tetrahydroisoquinoline-3-carboxamide]: in assay [1], the Kb is 0.96 ± 0.4 nM. Besides, in assay [2], the Kb came to 5.1 ± 2 nM and the “potency at μ receptors compared to 3” value is “increased potency”.
Regarding `COc1ccc2c(c1)CN[C@@](C)(C(=O)N[C@H](CN1CC[C@@](C)(c3cccc(O)c3)[C@@H](C)C1)C(C)C)C2` [Compound 8g, (3R)-7-Methoxy-N-[(1S)-1-[(3R,4R)-4-(3-hydroxyphenyl)-3,4-dimethylpiperidin-1-yl]methyl}-(2-methylpropyl]-3-methyl-1,2,3,4-tetrahydroisoquinoline-3-carboxamide], in assay [1], the “κ, U69,593 Ke” value is 0.93 ± 0.05 nM; the δ/κ is 40; the μ/κ amounted to 4. Besides, in assay [2], the “μ, DAMGO Ke” value is on record as 3.8 ± 1.1 nM. Moreover, in assay [3], the “δ, DPDPE Ke” value worked out at 36.8 ± 6.9 nM.
With `COc1cccc([C@]2(C)CCN(C[C@@H](NC(=O)[C@@]3(C)Cc4ccc(O)cc4CN3)C(C)C)C[C@@H]2C)c1` [Compound 8h, (3R)-7-Hydroxy-N-[(1S)-1-{[(3R,4R)-4-(3-methoxyphenyl)-3,4-dimethylpiperidin-1-yl]methyl}-2-methylpropyl]-3-methyl-1,2,3,4-tetrahydroisoquinoline-3-carboxamide], the Kb in assay [1] came out at 0.26 ± 0.1 nM; in assay [3], 2200 ± 900 nM.
As to `CC[C@H](C)[C@@H](CN1CC[C@@](C)(c2cccc(O)c2)[C@@H](C)C1)NC(=O)[C@@]1(C)Cc2ccc(O)cc2CN1` [Compound 8i, (3R)-7-Hydroxy-N-[(1S,2S)-1-{[(3R,4R)-4-(3-hydroxyphenyl)-3,4-dimethylpiperidin-1-yl]methyl}-2-methylbutanyl]-3-methyl-1,2,3,4-tetrahydroisoquinoline-3-carboxamide], the Kb in assay [1] came to 0.11 ± 0.01 nM. For the same molecule, in assay [2], the Kb turned out to be 8.7 ± 2.7 nM and the “potency at μ receptors compared to 3” value is “increased potency”.
For the molecule `CC[C@H](C)[C@@H](CN1CC[C@@](C)(c2cccc(O)c2)[C@@H](C)C1)NC(=O)[C@H]1Cc2ccc(O)cc2CN1C` [Compound 8j, (3R)-7-Hydroxy-N-[(1S,2S)-1-{[(3R,4R)-4-(3-hydroxyphenyl)-3,4-dimethylpiperidin-1-yl]methyl}-2-methylbutanyl]-2-methyl-1,2,3,4-tetrahydroisoquinoline-3-carboxamide], in assay [1], the Kb was found to be 0.11 ± 0.03 nM, the “change in potency on N-methylation” value is recorded as “decreases in potency”, the δ/κ is listed as 1200 and the μ/κ was 66. For the same molecule, in assay [2], the Kb was found to be 7.2 ± 1.8 nM and the “potency at μ receptors compared to 3” value is listed as “increased potency”. In assay [3], this molecule yielded a Kb of 132 ± 24 nM.
With `COc1cccc([C@]2(C)CCN(C[C@@H](NC(=O)[C@H]3Cc4ccc(O)cc4CN3C)C(C)C)C[C@@H]2C)c1` [Compound 8k, (3R)-7-Hydroxy-N-[(1S)-1-{[(3R,4R)-4-(3-methoxyphenyl)-3,4-dimethylpiperidin-1-yl]methyl}-2-methylpropyl]-2-methyl-1,2,3,4-tetrahydroisoquinoline-3-carboxamide], the figures for the Kb in assay [1], in assay [2] and in assay [3] were 4.3 ± 2.7 nM, 880 ± 220 nM and 2300 ± 900 nM, respectively. For the same molecule, in assay [1], the “change in potency on N-methylation” value is “decreases in potency”.
With `COc1cccc([C@]2(C)CCN(C[C@@H](NC(=O)[C@@]3(C)Cc4ccc(OC)cc4CN3)C(C)C)C[C@@H]2C)c1` [Compound 8l, (3R)-7-Methoxy-N-[(1S)-1-{[(3R,4R)-4-(3-methoxyphenyl)-3,4-dimethylpiperidin-1-yl]methyl}-2-methylpropyl]-3-methyl-1,2,3,4-tetrahydroisoquinoline-3-carboxamide], the Kb in assay [1] was 15.2 ± 3.7 nM; in assay [3], over 10000 nM.
With `CC[C@H](C)[C@@H](CN1CC[C@@](C)(c2cccc(OC)c2)[C@@H](C)C1)NC(=O)[C@@]1(C)Cc2ccc(O)cc2CN1` [Compound 8n, (3R)-7-Hydroxy-N-[(1S,2S)-1-{[(3R,4R)-4-(3-methoxyphenyl)-3,4-dimethylpiperidin-1-yl]methyl}-2-methylbutanyl)-3-methyl-1,2,3,4-tetrahydroisoquinoline-3-carboxamide], the Kb was determined as 0.52 ± 0.2 nM in assay [1] and 2100 ± 600 nM in assay [3].
Regarding `COc1ccc2c(c1)CN(C)[C@@](C)(C(=O)N[C@H](CN1CC[C@@](C)(c3cccc(O)c3)[C@@H](C)C1)C(C)C)C2` [Compound 8o, (3R)-7-Methoxy-N-[(1S)-1-{[(3R,4R)-4-(3-hydroxyphenyl)-3,4-dimethylpiperidin-1-yl]methyl}-2-methylpropyl]-2,3-dimethyl-1,2,3,4-tetrahydroisoquinoline-3-carboxamide], the Kb in assay [1] was determined as 2.2 ± 0.6 nM; in assay [2] it was 7 ± 1.4 nM. Further, in assay [1], the “change in potency on N-methylation” value is given as “decreases in potency”.
For `CC[C@H](C)[C@@H](CN1CC[C@@](C)(c2cccc(OC)c2)[C@@H](C)C1)NC(=O)[C@H]1Cc2ccc(O)cc2CN1C` [Compound 8p, (3R)-7-Hydroxy-N-[(1S,2S)-1-{[(3R,4R)-4-(3-methoxyphenyl)-3,4-dimethylpiperidin-1-yl]methyl}-2-methylbutanyl]-2-methyl-1,2,3,4-tetrahydroisoquinoline-3-carboxamide], in assay [1], the Kb is 2.03 ± 0.03 nM, the “change in potency on N-methylation” value is on record as “decreases in potency” and the μ/κ is reported as 180. In assay [2], this molecule had a Kb of 360 ± 120 nM. The same molecule showed a Kb in assay [3] of over 10000 nM.
